Results as given in patent US20240270698A2, “NOVEL PYRIMIDINE DERIVATIVE AND USE THEREOF” (KOREA RESEARCH INSTITUTE OF CHEMICAL TECHNOLOGY, priority 2019, published 2024).

Columns and labels:
[1] = molecular target: T1, human recombinant MLK3 protein (Homo sapiens, UniProt Q16584); assay: MLK3 kinase activity assay (Eurofins, gamma-33P-ATP, filtermat scintillation counting); assay type: biochemical; conditions: human recombinant MLK3, 120 minutes at room temperature
T1 construct: purchased Eurofins
Method: (§1) Compounds 1 to 119 synthesized in Example 1 according to the present disclosure were assayed for inhibitory activity against MLK3/LRRK2 enzymes and anticancer activity against HepG2/HS746T cancer cells, and the results are summarized in Table 1, below.
(§2) Inhibitory activity against MLK3 and LRRK2 enzymes was evaluated in Eurofins. In brief, human recombinant MLK3 protein was mixed with the compounds in a reaction buffer (8 mM MOPS (pH 7.0), 0.2 mM EDTA, 0.33 mg/mL myelin basic protein, 5 mM DTT) to which a mixture of 10 mM magnesium acetate and gamma-33P-ATP was then added before incubation at room temperature for 120 minutes. Afterward, the reaction was terminated with 0.5% phosphoric acid. Ten μL of the total mixture was spotted onto a P30 filtermat which was then washed four times for 4 minutes with 0.425% phosphoric acid and once in methanol prior to scintillation counting. Values for the activity of MLK3 were expressed as % of the control. For the activity of LRRK2, human recombinant LRRK2 protein was mixed with the compounds in a reaction buffer (50 mM HEPES (pH 8.0), 0.2 mM EDTA, 0.01% Brij-35, 1% (w/v) BSA, 5 mM DTT, 250 uM substrate peptide RLGRDKYKTLRQIRQ) and then reacted with a mixture of 10 mM magnesium acetate and gamma-33P-ATP at room temperature for 40 minutes. Afterward, the reaction was terminated with 0.5% phosphoric acid. Ten μL of the total mixture was spotted onto a P30 filtermat which was then washed four times for 4 minutes with 0.425% phosphoric acid and once in methanol prior to scintillation counting. Values for the activity of LRRK2 were expressed as % of the control.

[2] = molecular target: T2, human recombinant LRRK2 protein (Homo sapiens, UniProt Q5S007); assay: LRRK2 kinase activity assay (Eurofins, gamma-33P-ATP, filtermat scintillation counting); assay type: biochemical; conditions: human recombinant LRRK2, 40 minutes at room temperature
T2 construct: purchased Eurofins
Method: as §1, §2

HepG2 cancer cells = assay: Anticancer activity, cell viability by CCK-8, HepG2; assay type: cell-based; conditions: HepG2, 10 μM, 72 hours
Method: (§3) Compounds 1 to 119 synthesized in Example 1 according to the present disclosure were assayed for inhibitory activity against MLK3/LRRK2 enzymes and anticancer activity against HepG2/H[…] cancer cells, and the results are summarized in Table 1, below. Assay for anticancer activity was conducted as follows. HepG2 and H[…] cancer cells were purchased from the Korean Cell Line Bank and cultured according to the instruction provided thereby. One hundred μL of a culture of the cells were seeded at a density of 4,000 cells/well into 96-well plates. After 24 hours, the cells were treated with the compounds for 72 hours. Then, cell viability was assayed using CCK-8 and expressed as % of the control.

HS746T cancer cells = assay: Anticancer activity, cell viability by CCK-8, HS746T; assay type: cell-based; conditions: 72 hours
Method: as §3

T1 sequence (Q16584 whole entry): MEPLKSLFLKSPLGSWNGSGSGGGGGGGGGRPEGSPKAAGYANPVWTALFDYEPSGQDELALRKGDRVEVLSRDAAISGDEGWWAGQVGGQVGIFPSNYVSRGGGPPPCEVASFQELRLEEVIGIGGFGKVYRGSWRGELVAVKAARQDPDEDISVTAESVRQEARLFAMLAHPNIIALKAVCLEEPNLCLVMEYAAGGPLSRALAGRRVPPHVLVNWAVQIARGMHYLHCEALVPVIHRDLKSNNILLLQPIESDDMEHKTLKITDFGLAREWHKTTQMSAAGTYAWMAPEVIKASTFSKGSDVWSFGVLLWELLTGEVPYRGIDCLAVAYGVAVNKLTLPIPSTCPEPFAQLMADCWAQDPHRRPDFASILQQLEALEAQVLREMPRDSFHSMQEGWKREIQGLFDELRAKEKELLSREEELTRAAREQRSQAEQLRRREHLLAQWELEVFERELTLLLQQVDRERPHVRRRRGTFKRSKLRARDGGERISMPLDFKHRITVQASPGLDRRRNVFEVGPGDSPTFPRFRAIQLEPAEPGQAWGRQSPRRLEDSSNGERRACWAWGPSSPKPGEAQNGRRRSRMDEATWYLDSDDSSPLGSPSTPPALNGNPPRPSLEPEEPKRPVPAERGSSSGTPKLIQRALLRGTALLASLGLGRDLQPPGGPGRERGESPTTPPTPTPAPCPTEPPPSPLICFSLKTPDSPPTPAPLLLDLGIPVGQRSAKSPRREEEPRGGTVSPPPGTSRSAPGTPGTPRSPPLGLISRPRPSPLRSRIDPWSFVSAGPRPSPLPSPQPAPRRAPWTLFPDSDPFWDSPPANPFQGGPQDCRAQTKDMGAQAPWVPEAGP
T2 sequence (Q5S007 whole entry): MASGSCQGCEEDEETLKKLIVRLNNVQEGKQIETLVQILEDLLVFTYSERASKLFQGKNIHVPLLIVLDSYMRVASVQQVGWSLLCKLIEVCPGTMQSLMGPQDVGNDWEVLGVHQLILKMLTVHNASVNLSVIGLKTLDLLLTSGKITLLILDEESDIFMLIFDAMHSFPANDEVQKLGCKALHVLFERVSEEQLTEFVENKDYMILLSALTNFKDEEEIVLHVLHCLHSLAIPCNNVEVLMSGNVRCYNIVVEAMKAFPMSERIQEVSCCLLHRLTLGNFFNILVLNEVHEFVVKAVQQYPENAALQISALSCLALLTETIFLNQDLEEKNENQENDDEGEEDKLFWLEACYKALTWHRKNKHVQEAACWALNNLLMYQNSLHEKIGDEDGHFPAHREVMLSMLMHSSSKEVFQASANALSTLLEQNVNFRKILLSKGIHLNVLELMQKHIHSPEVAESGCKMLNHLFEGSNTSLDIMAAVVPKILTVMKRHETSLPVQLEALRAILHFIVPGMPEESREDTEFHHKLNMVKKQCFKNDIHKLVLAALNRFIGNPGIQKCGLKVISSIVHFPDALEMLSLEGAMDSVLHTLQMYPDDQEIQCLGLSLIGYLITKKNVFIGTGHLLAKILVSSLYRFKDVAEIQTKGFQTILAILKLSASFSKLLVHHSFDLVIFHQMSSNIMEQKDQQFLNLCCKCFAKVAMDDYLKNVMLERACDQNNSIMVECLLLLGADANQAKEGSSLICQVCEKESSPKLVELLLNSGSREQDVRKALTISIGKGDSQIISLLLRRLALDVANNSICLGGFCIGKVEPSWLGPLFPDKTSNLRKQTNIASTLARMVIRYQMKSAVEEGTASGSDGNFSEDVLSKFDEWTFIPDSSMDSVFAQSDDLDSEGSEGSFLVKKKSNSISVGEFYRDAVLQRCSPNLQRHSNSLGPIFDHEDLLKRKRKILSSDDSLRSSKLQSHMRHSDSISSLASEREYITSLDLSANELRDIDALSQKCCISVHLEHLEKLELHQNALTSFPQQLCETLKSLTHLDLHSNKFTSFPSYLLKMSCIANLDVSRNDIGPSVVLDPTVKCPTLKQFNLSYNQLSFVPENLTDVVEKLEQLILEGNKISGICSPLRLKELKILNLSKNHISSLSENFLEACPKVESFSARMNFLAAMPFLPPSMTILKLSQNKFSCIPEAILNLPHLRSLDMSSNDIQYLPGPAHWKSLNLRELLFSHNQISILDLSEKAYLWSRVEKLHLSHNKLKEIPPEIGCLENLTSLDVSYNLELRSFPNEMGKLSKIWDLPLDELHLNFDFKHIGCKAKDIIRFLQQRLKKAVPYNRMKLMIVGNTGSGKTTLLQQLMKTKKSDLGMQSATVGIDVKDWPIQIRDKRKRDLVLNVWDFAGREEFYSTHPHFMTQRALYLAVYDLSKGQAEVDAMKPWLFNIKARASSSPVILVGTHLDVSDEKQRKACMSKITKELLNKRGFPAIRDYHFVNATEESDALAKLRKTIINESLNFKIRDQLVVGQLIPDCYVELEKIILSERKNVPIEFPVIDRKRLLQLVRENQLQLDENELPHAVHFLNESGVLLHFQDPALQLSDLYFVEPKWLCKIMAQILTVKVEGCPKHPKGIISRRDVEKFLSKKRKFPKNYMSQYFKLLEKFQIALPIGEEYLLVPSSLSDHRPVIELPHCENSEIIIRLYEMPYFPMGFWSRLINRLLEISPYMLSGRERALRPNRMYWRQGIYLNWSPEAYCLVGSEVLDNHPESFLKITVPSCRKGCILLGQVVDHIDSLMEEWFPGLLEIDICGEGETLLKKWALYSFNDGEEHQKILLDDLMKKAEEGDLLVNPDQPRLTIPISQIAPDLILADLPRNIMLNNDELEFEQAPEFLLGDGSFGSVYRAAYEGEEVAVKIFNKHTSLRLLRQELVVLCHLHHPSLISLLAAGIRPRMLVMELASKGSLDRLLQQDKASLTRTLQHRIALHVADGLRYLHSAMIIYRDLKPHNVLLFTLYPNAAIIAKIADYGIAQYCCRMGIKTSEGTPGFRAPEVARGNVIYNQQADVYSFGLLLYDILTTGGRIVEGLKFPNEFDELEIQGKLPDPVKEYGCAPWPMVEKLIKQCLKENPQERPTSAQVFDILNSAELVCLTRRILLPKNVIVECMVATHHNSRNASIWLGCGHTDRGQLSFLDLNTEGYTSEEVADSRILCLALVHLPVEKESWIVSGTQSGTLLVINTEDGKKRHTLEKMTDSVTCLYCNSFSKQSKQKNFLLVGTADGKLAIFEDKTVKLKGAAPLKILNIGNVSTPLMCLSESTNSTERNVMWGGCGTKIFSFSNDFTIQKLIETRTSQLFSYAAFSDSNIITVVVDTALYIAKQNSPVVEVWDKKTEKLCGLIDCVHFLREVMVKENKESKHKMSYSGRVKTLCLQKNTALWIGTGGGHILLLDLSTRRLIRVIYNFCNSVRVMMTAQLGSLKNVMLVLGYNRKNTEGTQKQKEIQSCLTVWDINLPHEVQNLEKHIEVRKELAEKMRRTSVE

| SMILES | IC50 [1] [nM] | IC50 [2] [nM] | Cell viability (% of Con. 10 μM) HepG2 (HepG2 cancer cells) | Cell viability (% of Con. 10 μM) HS746T (HS746T cancer cells) |
| --- | --- | --- | --- | --- |
| CP(C)(=O)c1ccccc1Nc1nc(Nc2ccc3c(c2)CN(C(=O)C(F)(F)F)C3)ncc1Cl [compound 72, 1-(5-((5-Chloro-4-((2-(dimethylphosphoryl)phenyl)amino)pyrimidin-2-yl)amino)isoindolin-2-yl)-2,2,2-trifluoroethan-1-one] | 10 to 100 | 1 to 10 | 35 % of Con. | 9 % of Con. |
| Cc1cc(Nc2ncc(Cl)c(Nc3ccccc3P(C)(C)=O)n2)ccn1 [compound 10, (2-((5-Chloro-2-((2-methylpyridin-4-yl)amino)pyrimidin-4-yl)amino)phenyl)dimethylphosphine oxide] | > 1000 | > 1000 | 91 % of Con. | 120 % of Con. |
| CS(=O)(=O)N1CCC(Nc2nc(Nc3ccnc4c(F)cccc34)ncc2F)CC1 [compound 38, 5-Fluoro-N^2-(8-fluoroquinolin-4-yl)-N^4-(1-(methylsulfonyl)piperidin-4-yl)pyrimidine-2,4-diamine] | > 1000 | 100 to 1000 | 73 % of Con. | 90 % of Con. |
| CP(C)(=O)c1ccccc1Nc1nc(Nc2cnc3ccccc3c2)ncc1Cl [compound 19, (2-((5-Chloro-2-(quinolin-3-ylamino)pyrimidin-4-yl)amino)phenyl) dimethylphosphine oxide] | 10 to 100 | 10 to 100 | 34 % of Con. | 25 % of Con. |
| CP(C)(=O)c1ccccc1Nc1nc(N2CCc3c(N)cccc3C2)ncc1Cl [compound 9, (2-((2-(5-Amino-3,4-dihydroisoquinolin-2(1H)-yl)-5-chloropyrimidin-4-yl)amino)phenyl)dimethylphosphine oxide] | > 1000 | > 1000 | 110 % of Con. | 104 % of Con. |
| CP(C)(=O)c1ccccc1Nc1nc(Nc2ccc3c(c2)CCN(C(=O)C(F)(F)F)C3)ncc1Cl [compound 48, 1-(6-((5-Chloro-4-((2-(dimethylphosphoryl)phenyl)amino)pyrimidin-2-yl)amino)-3,4-dihydroisoquinolin-2(1H)-yl)-2,2,2-trifluoroethan-1-one] | 1 to 10 | 1 to 10 | 37 % of Con. | 9 % of Con. |
| Cc1ccc(Nc2ncc(Cl)c(Nc3ccccc3P(C)(C)=O)n2)c2[nH]cc(C#N)c12 [compound 70, 7-((5-chloro-4-((2-(dimethylphosphoryl)phenyl)amino)pyrimidin-2-yl)amino)-4-methyl-1H-indole-3-carbonitrile] | 10 to 100 | 1 to 10 | 30 % of Con. | 25 % of Con. |
| CC(C)C1c2cc(Nc3ncc(F)c(NC4CCN(S(C)(=O)=O)CC4)n3)ccc2CCN1C(=O)C(F)(F)F (centres unmarked) [compound 58, 2,2,2-Trifluoro-1-(7-((5-fluoro-4-((1-(methylsulfonyl)piperidin-4-yl)amino)pyrimidin-2-yl)amino)-1-isopropyl-3,4-dihydroisoquinolin-2(1H)-yl)ethan-1-one] | > 1000 | 100 to 1000 | 83 % of Con. | 85 % of Con. |
| CP(C)(=O)c1ccccc1Nc1nc(Nc2ccc3c(c2)CNC3)ncc1Cl [compound 73, (2-((5-Chloro-2-(isoindolin-5-ylamino)pyrimidin-4-yl)amino)phenyl)dimethylphosphine oxide] | 1 to 10 | 1 to 10 | 19 % of Con. | 0.5 % of Con. |
| CP(C)(=O)c1ccccc1Nc1nc(Nc2ccc3[nH]nc(-c4ccc(OC(F)(F)F)cc4)c3c2)ncc1Cl [compound 110, (2-((5-Chloro-2-((3-(4-(trifluoromethoxy)phenyl)-1H-indazol-5-yl)amino)pyrimidin-4-yl)amino)phenyl)dimethylphosphine oxide] | 1 to 10 | 10 to 100 | 24 % of Con. | 12 % of Con. |

More lines, main results first:

| IC50 [1] [nM] | IC50 [2] [nM] | SMILES | Cell viability (% of Con. 10 μM) HepG2 (HepG2 cancer cells) | Cell viability (% of Con. 10 μM) HS746T (HS746T cancer cells) |
| --- | --- | --- | --- | --- |
| 1 to 10 | 1 to 10 | CC(C)n1cc(-c2n[nH]c3ccc(Nc4ncc(Cl)c(Nc5ccccc5P(C)(C)=O)n4)cc23)cn1 [compound 93, (2-((5-Chloro-2-((3-(1-isopropyl-1H-pyrazol-4-yl)-1H-indazol-5-yl)amino)pyrimidin-4-yl)amino)phenyl)dimethylphosphine oxide] | 42 % of Con. | 18 % of Con. |
| 1 to 10 | 1 to 10 | CC(C)C1c2cc(Nc3ncc(Cl)c(Nc4ccccc4P(C)(C)=O)n3)ccc2CCN1C(=O)C(F)(F)F (centres unmarked) [compound 53, 1-(7-((5-Chloro-4-((2-(dimethylphosphoryl)phenyl)amino)pyrimidin-2-yl)amino)-1-isopropyl-3,4-dihydroisoquinolin-2(1H)-yl)-2,2,2-trifluoroethan-1-one] | 23 % of Con. | 14 % of Con. |
| 1 to 10 | 10 to 100 | COc1cc(Cl)cc(-c2n[nH]c3ccc(Nc4ncc(Cl)c(Nc5ccccc5P(C)(C)=O)n4)cc23)c1 [compound 113, (2-((5-Chloro-2-((3-(3-chloro-5-methoxyphenyl)-1H-indazol-5-yl)amino)pyrimidin-4-yl)amino)phenyl)dimethylphosphine oxide] | 16 % of Con. | 26 % of Con. |
| 1 to 10 | 10 to 100 | CP(C)(=O)c1ccccc1Nc1nc(Nc2ccc3[nH]nc(-c4ccc(C#N)cc4)c3c2)ncc1Cl [compound 105, 4-(5-((5-Chloro-4-((2-(dimethylphosphoryl)phenyl)amino)pyrimidin-2-yl)amino)-1H-indazol-3-yl)benzonitrile] | 55 % of Con. | 23 % of Con. |
| 1 to 10 | 10 to 100 | COc1ccc(-c2n[nH]c3ccc(Nc4ncc(Cl)c(Nc5ccccc5P(C)(C)=O)n4)cc23)cc1F [compound 109] | 53 % of Con. | 25 % of Con. |
| 1 to 10 | 1 to 10 | Cc1cc2cc(Nc3ncc(Cl)c(Nc4ccccc4P(C)(C)=O)n3)ccc2[nH]1 [compound 69, (2-((5-Chloro-2-((2-methyl-1H-indol-5-yl)amino)pyrimidin-4-yl)amino)phenyl)dimethylphosphine oxide] | 29 % of Con. | 23 % of Con. |
| 1 to 10 | 1 to 10 | Cn1cc(-c2n[nH]c3ccc(Nc4ncc(Cl)c(Nc5ccccc5P(C)(C)=O)n4)cc23)cn1 [compound 94, (2-((5-Chloro-2-((3-(1-methyl-1H-pyrazol-4-yl)-1H-indazol-5-yl)amino)pyrimidin-4-yl)amino)phenyl)dimethylphosphine oxide] | 30 % of Con. | 15 % of Con. |
